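Cultured in 96-well plates, cells were exposed to test compound for 48 hours across five concentrations. At the GI50, growth is halved.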 Activity calls are given as the source filed them. Cut-off read from the data, not from the text of the source: active = GI50 up to about 1.1 µM and inactive = higher.
Columns and labels:
Experiment in all cases: DTP human tumour cell line panel, 48 h
BT-549 = test system: BT-549
SF-268 = test system: SF-268
SF-295 = test system: SF-295
HCT-116 = test system: HCT-116
DU-145 = test system: DU-145
SNB-19 = test system: SNB-19
HOP-92 = test system: HOP-92
HL-60 = test system: HL-60
EKVX = test system: EKVX
OVCAR-5 = test system: OVCAR-5
HCT-15 = test system: HCT-15
MCF7 = test system: MCF7
T47D = test system: T47D
TK-10 = test system: TK-10
COLO 205 = test system: COLO 205
SK-OV-3 = test system: SK-OV-3
M14 = test system: M14
LOX IMVI = test system: LOX IMVI
786-0 = test system: 786-0
SN12C = test system: SN12C
UACC-257 = test system: UACC-257
HT-29 = test system: HT-29
A498 = test system: A498
A549 = test system: A549
NCI-H226 = test system: NCI-H226
MDA-N = test system: MDA-N
Hs-578T = test system: Hs-578T
RPMI-8226 = test system: RPMI-8226
NCI/ADR-RES = test system: NCI/ADR-RES
Malme-3M = test system: Malme-3M
UO-31 = test system: UO-31
MDA-MB-435 = test system: MDA-MB-435
KM12 = test system: KM12
SNB-75 = test system: SNB-75
CCRF-CEM = test system: CCRF-CEM
ACHN = test system: ACHN
SK-MEL-5 = test system: SK-MEL-5
IGROV-1 = test system: IGROV-1
MOLT-4 = test system: MOLT-4
RXF 393 = test system: RXF 393
HOP-62 = test system: HOP-62
NCI-H23 = test system: NCI-H23
SK-MEL-28 = test system: SK-MEL-28
K562 = test system: K562
U-251 = test system: U-251
HCC 2998 = test system: HCC 2998
SW-620 = test system: SW-620
MDA-MB-231 = test system: MDA-MB-231
OVCAR-4 = test system: OVCAR-4
CAKI-1 = test system: CAKI-1
OVCAR-3 = test system: OVCAR-3
UACC-62 = test system: UACC-62
SK-MEL-2 = test system: SK-MEL-2
PC-3 = test system: PC-3

O=C1/C(=C\c2ccc(O)cc2)CCC/C1=C/c1ccc(Cl)c(Cl)c1
GI50 (BT-549): 2770 nM (inactive) | GI50 (SF-268): 3350 nM (inactive) | GI50 (SF-295): 2650 nM (inactive) | GI50 (HCT-116): 1890 nM (inactive) | GI50 (DU-145): 3190 nM (inactive) | GI50 (SNB-19): 5510 nM (inactive) | GI50 (HOP-92): 15600 nM (inactive) | GI50 (HL-60): 1960 nM (inactive) | GI50 (EKVX): 7690 nM (inactive) | GI50 (OVCAR-5): 18800 nM (inactive) | GI50 (HCT-15): 2960 nM | GI50 (MCF7): 2690 nM (inactive) | GI50 (T47D): 11500 nM (inactive) | GI50 (TK-10): 2980 nM (inactive) | GI50 (COLO 205): 1760 nM (inactive) | GI50 (SK-OV-3): 4370 nM (inactive) | GI50 (M14): 2130 nM (inactive) | GI50 (LOX IMVI): 1470 nM (inactive) | GI50 (786-0): 2430 nM (inactive) | GI50 (SN12C): 2730 nM (inactive) | GI50 (UACC-257): 4190 nM (inactive) | GI50 (HT-29): 1630 nM (inactive) | GI50 (A498): 3390 nM (inactive) | GI50 (A549): 3780 nM (inactive) | GI50 (NCI-H226): 3960 nM (inactive) | GI50 (MDA-N): 2480 nM (inactive) | GI50 (Hs-578T): 5650 nM (inactive) | GI50 (RPMI-8226): 2440 nM (inactive) | GI50 (NCI/ADR-RES): 2030 nM (inactive) | GI50 (Malme-3M): 5300 nM (inactive) | GI50 (UO-31): 2750 nM (inactive) | GI50 (MDA-MB-435): 3150 nM (inactive) | GI50 (KM12): 1700 nM (inactive) | GI50 (SNB-75): 2720 nM (inactive) | GI50 (CCRF-CEM): 374 nM (active) | GI50 (ACHN): 3520 nM (inactive) | GI50 (SK-MEL-5): 7110 nM (inactive) | GI50 (IGROV-1): 331 nM (active) | GI50 (MOLT-4): 1820 nM (inactive) | GI50 (RXF 393): 2380 nM (inactive) | GI50 (HOP-62): 4170 nM (inactive) | GI50 (NCI-H23): 3130 nM (inactive) | GI50 (SK-MEL-28): 4100 nM (inactive) | GI50 (K562): 2670 nM (inactive) | GI50 (U-251): 4360 nM (inactive) | GI50 (HCC 2998): 2310 nM (inactive) | GI50 (SW-620): 3370 nM (inactive) | GI50 (MDA-MB-231): 3380 nM (inactive) | GI50 (OVCAR-4): 2320 nM (inactive) | GI50 (CAKI-1): 4820 nM (inactive) | GI50 (OVCAR-3): 3670 nM (inactive) | GI50 (UACC-62): 2280 nM (inactive) | GI50 (SK-MEL-2): 18600 nM (inactive) | GI50 (PC-3): 3570 nM (inactive)

From ChEMBL document CHEMBL1201862, “PubChem BioAssay data set” (2004)
